Patent publication US20190185865A1, “USE OF PROKARYOTIC TRANSCRIPTIONAL ACTIVATORS AS METABOLITE BIOSENSORS IN EUKARYOTIC CELLS” (Danmarks Tekniske Universitet, priority 2016, published 2019)

Test system: BenM
Assay: CCM-induced GFP expression in yeast strains combining BenM expression cassettes and CYC1p reporter promoter variants (flow cytometry)
Assay type: cell-based, Saccharomyces cerevisiae
Conditions: for FC (+/−CCM): 1.4 mM CCM, 24 h
Description: Strains, chemicals and media. Saccharomyces cerevisiae CEN.PK102-5B (MATa ura3-52 his3Δ1 leu2-3/112 MAL2-8^c SUC2), CEN.PK113-5A (MATa, trp1 his3Δ1 leu2-3/112 MAL2-8^c SUC2) and CEN.PK113-7D (wild type, MATa MAL2-8^c SUC2) strains were obtained from Peter Kotter (Johann Wolfgang Goethe-University Frankfurt, Germany). In principal any other yeast strains may be used, such as one obtained from public repository EuroScarf. EasyClone plasmids used in this work are described in Jensen, N. B. et al. EasyClone: method for iterative chromosomal integration of multiple genes in Saccharomyces cerevisiae. FEMS Yeast Res. 14, 238-48 (2014). Escherichia coli strain DH5a was used as a host for cloning and plasmid propagation. The chemicals and Pfu TURBO DNA polymerase were commercially obtained (Sigma-Aldrich and Agilent Technologies Inc., respectively). All acids used were >97% in purity. S. cerevisiae cells were grown at 30° C. in synthetic complete medium as well as drop-out media and agar plates were prepared using pre-mixed drop-out powders (Sigma-Aldrich). Mineral medium was freshly prepared as described previously. For all media containing diacids, 1.4 mM of the individual diacids were dissolved in mineral medium and pH adjusted to 4.5 before sterile filtration. For CCM several dilutions were made to examine the performance of the CCM biosensor. For naringenin, mineral medium was supplemented with 0, 0.05, 0.10 or 0.20 mM naringenin, dissolved in ethanol, the final ethanol concentration for each medium was 2% (v/v), and the final pH of the medium was adjusted to 6.0. E. coli cells were grown at 37° C. in Luria-Bertani (LB) medium supplemented with 100 μg/mL ampicillin.
Events were analyzed using FlowJo software (TreeStar Inc.).

[1] = strain MeLS0131, 491bp_CYC1p:GFP
[2] = strain MeLS0132, 272bp_CYC1p:GFP
[3] = strain MeLS0133, 249bp_CYC1p:GFP
[4] = strain MeLS0134, 209bp_CYC1p:GFP
[5] = strain MeLS0135, 491bp_CYC1p_BenO_T1:GFP
[6] = strain MeLS0136, 272bp_CYC1p_BenO_T1:GFP
[7] = strain MeLS0137, 249bp_CYC1p_BenO_T1:GFP
[8] = strain MeLS0138, 209bp_CYC1p_BenO_T1:GFP
[9] = strain MeLS0177, 491bp_CYC1p_BenO_T2:GFP
[10] = strain MeLS0178, 491bp_CYC1p_BenO_T1/T2:GFP
[11] = strain MeLS0180, 209bp_CYC1p_BenO_T2:GFP
[12] = strain MeLS0181, 209bp_CYC1p_BenO_T1/T2:GFP
[13] = strain MeLS0259, 272bp_CYC1p_BenO_T2:GFP
[14] = strain MeLS0260, 249bp_CYC1p_BenO_T2:GFP
[15] = strain MeLS0261, 272bp_CYC1p_BenO_T1/T2:GFP
[16] = strain MeLS0262, 249bp_CYC1p_BenO_T1/T2:GFP

Compound: O=C(O)/C=C\C=C/C(=O)O [CCM, cis, cis-muconic acid]
- Mean fluorescense intensities of GFP (24 h), CCM (1.4 mM) [1]: 2899
- FC (+/−CCM) [1]: 1.042
- Mean fluorescense intensities of GFP (24 h), CCM (1.4 mM) [2]: 211
- FC (+/−CCM) [2]: 1.213
- Mean fluorescense intensities of GFP (24 h), CCM (1.4 mM) [3]: 219
- FC (+/−CCM) [3]: 1.043
- Mean fluorescense intensities of GFP (24 h), CCM (1.4 mM) [4]: 171
- FC (+/−CCM) [4]: 1.13
- Mean fluorescense intensities of GFP (24 h), CCM (1.4 mM) [5]: 801
- FC (+/−CCM) [5]: 1.062
- Mean fluorescense intensities of GFP (24 h), CCM (1.4 mM) [6]: 160
- FC (+/−CCM) [6]: 1.032
- Mean fluorescense intensities of GFP (24 h), CCM (1.4 mM) [7]: 180
- FC (+/−CCM) [7]: 1.151
- Mean fluorescense intensities of GFP (24 h), CCM (1.4 mM) [8]: 167
- FC (+/−CCM) [8]: 1.133
- Mean fluorescense intensities of GFP (24 h), CCM (1.4 mM) [9]: 698
- FC (+/−CCM) [9]: 1.088
- Mean fluorescense intensities of GFP (24 h), CCM (1.4 mM) [10]: 241
- FC (+/−CCM) [10]: 0.9731
- Mean fluorescense intensities of GFP (24 h), CCM (1.4 mM) [11]: 165
- FC (+/−CCM) [11]: 1.088
- Mean fluorescense intensities of GFP (24 h), CCM (1.4 mM) [12]: 165
- FC (+/−CCM) [12]: 1.102
- Mean fluorescense intensities of GFP (24 h), CCM (1.4 mM) [13]: 201
- FC (+/−CCM) [13]: 1.002
- Mean fluorescense intensities of GFP (24 h), CCM (1.4 mM) [14]: 313
- FC (+/−CCM) [14]: 0.909
- Mean fluorescense intensities of GFP (24 h), CCM (1.4 mM) [15]: 257
- FC (+/−CCM) [15]: 0.7988
- Mean fluorescense intensities of GFP (24 h), CCM (1.4 mM) [16]: 203
- FC (+/−CCM) [16]: 1
